Target: trORAS (truncated ORAS) (Neurospora crassa, UniProt Q7S6N4)
Test: HPLC of CoASH release, initial velocities, Michaelis-Menten fit
Type: biochemical
Conditions: malonyl-CoA (100 mM [sic]) as extender; 50 mM Tris-HCl pH 7.0; 30 °C

Km: 3.5 µM
SMILES: CCCCCCCCCCCCCCCCCC(=O)SCCNC(=O)CCNC(=O)[C@H](O)C(C)(C)COP(=O)(O)OP(=O)(O)OC[C@H]1O[C@@H](n2cnc3c(N)ncnc32)[C@H](O)[C@@H]1OP(=O)(O)O [7a, stearoyl-CoA]

Source: article PMC2610677 (Chemistry & biology, 2008)
